Entries after “also recorded” stand apart in the source; their conditions may differ.
Tests used:
[1] = tested on: stem cell populations in blood (cd34+, cd45+, Sca-1+ cells); assay: FACS of cells expressing stem cell markers CD34, CD45, Sca-1 in blood samples; assay type: in vivo, C57BL6/J mice
Experimental: Mice received either a placebo or triptolide (400 μg/kg) by intraperitoneal injection.
Celastrol analogs administered included dihydrocelastrol, dihydrocelastrol diacetate, and pristimerol (dihydropristimerin). Mice received either a placebo or a celastrol analog (3.0 mg/kg) by intraperitoneal injection.
(§1) Mice received either a placebo (PBS) or oridonin (3.0 mg/kg) by intraperitoneal injection.

[2] = tested on: stem cell populations in bone marrow (cd34+, cd45+, Sca-1+ cells); assay: FACS of cells expressing stem cell markers CD34, CD45, Sca-1 in bone marrow samples; assay type: in vivo, C57BL6/J mice
Experimental: as §1

mice = details: mouse, in vivo
Experimental: Valproic acid was administered to C57BL6/J mice to determine the effect of valproic acid on stem cell populations in bone marrow and in blood. Mice received either a placebo or valproic acid (200 mg/kg) by intraperitoneal injection. […] Bone marrow samples were taken from both groups of mice at 24 hours after administration of the placebo or valproic acid. Blood samples were taken from both groups of mice at 72 hours after administration of the placebo or valproic acid. The bone marrow samples and blood samples were analyzed by FACS for cells expressing stem cell markers. To observe the effect of treatment with valproic acid, cells expressing the stem cell markers CD34, CD45, and Sca-1 in the bone marrow and blood samples, were quantitated as a percentage of the total populations in their respective samples (i.e., in the bone marrow sample and in the blood sample, respectively).

[3] = tested on: stem cell populations in blood (cd34+, cd45+, Sca-1+ cells); assay: FACS of cells expressing stem cell markers CD34, CD45, Sca-1 in blood samples; assay type: in vivo, C57BL6/J mice; details: valproic acid 200 mg/kg i.p.; 72 hours post treatment
[4] = tested on: cytokine production in mouse blood; assay: Cytokine/chemokine levels in blood serum (Millipore 21-Plex, Luminex); assay type: in vivo, C57BL6/J mice
Experimental: Mice received either a placebo, celastrol (3.0 mg/kg), or 17-AAG (10 mg/kg) by intraperitoneal injection. Blood samples were taken from all groups of mice at 0, 1, 3, 6, 24, 48, and 72 hours after administration of the placebo, celastrol, or 17-AAG. The blood samples were analyzed for cytokine production, including the production of granulocyte-macrophage colony-stimulating factor (GM-CSF), interferon-gamma (IFN-γ), interleukin-10 (IL-10), interleukin-12 subunit beta (IL-12p40), interleukin-12 heterodimer (IL-12p70), interleukin-12 homodimer (IL-12p80), vascular endothelial growth factor (VEGF), tumor necrosis factor-alpha (TNF-α), keratinocyte derived chemokine (KC), RANTES (Regulated upon Activation, Normal T-cell Expressed, and Secreted; CCL5), monocyte chemotactic protein-1 (MCP 1), macrophage inflammatory protein (MIP1β; CCL4), interleukin-4 (IL-4), interleukin-3 (IL-3), interleukin-2 (IL-2), interleukin-1 beta (IL-1β), interleukin-1 alpha (IL-1α), interleukin-9 (IL-9), interleukin-13 (IL-13), interleukin-17 (IL-17), interleukin-6 (IL-6), and interleukin-5 (IL-5). Blood serum was analyzed using a commercially available kit (e.g., Mouse cytokine/chemokine panel: 21-Plex; Millipore). Blood serum (50 μl) was assayed in duplicate using a commercially available cytokine/chemokine detection kit from Millipore following the protocol given with the product information. The final measurement was performed using a commercially available detector (e.g., computer-operated Luminex 100 IS system) and the results were expressed as pg/ml blood serum sample. Levels of cytokines in blood were quantitated as a concentration of the total volume of the sample.

[5] = celastrol analog 3.0 mg/kg i.p., 24 hours post treatment (so in the source)
[6] = celastrol analog 3.0 mg/kg i.p., 24 hours post treatment
[7] = oridonin 3.0 mg/kg i.p., 48 hours post treatment
[8] = oridonin 3.0 mg/kg i.p., 24 hours post treatment
[9] = valproic acid 200 mg/kg i.p., 72 hours post treatment
[10] = valproic acid 200 mg/kg i.p., 24 hours post treatment
[11] = i.p. celastrol 3.0 mg/kg or 17-AAG 10 mg/kg, 72 hour time course
[12] = i.p. celastrol 3.0 mg/kg or 17-AAG 10 mg/kg, sampled 0-72 h
[13] = i.p. celastrol 3.0 mg/kg or 17-AAG 10 mg/kg, sampled 0-72 h, vs placebo control
[14] = triptolide 400 μg/kg i.p., 24 hours post treatment
[15] = triptolide 400 μg/kg i.p., 48 hours post treatment
[16] = triptolide 400 μg/kg i.p., 72 hours post treatment

Cc1c(O)c(O)cc2c1CC=C1[C@@]2(C)CC[C@@]2(C)[C@@H]3C[C@](C)(C(=O)O)CC[C@]3(C)CC[C@]12C [dihydrocelastrol]
Sca-1+ cells, percent of the population of blood cells [1, 5]: 0.4%
cd34+ cells, percent of the population of blood cells [1, 5]: approximately 0.6%
cd45+ cells, percent of the population of blood cells [1, 5]: about 0.19%
fold increase of percentage of Sca-1+ cells in blood over control [1, 5]: ~10 fold
fold increase of percentage of cd34+ cells in blood over control [1, 5]: ~4 fold
fold increase of percentage of cd45+ cells in blood over control [1, 5]: ~10 fold
Sca-1+ cells, percent of the population of bone marrow cells [2, 6]: 0.14%
cd34+ cells, percent of the population of bone marrow cells [2, 6]: 0.15%
cd45+ cells, percent of the population of bone marrow cells [2, 6]: 0.04%
change of percentage of cd45+ cells in bone marrow compared to untreated control [2, 6]: slight increase
fold increase of percentage of Sca-1+ cells in bone marrow over control [2, 6]: ~3 fold
fold increase of percentage of cd34+ cells in bone marrow over control [2, 6]: ~3 fold

C=C1C(=O)[C@]23[C@H](O)[C@H]1CC[C@H]2[C@@]12CO[C@]3(O)[C@@H](O)[C@@H]1C(C)(C)CC[C@@H]2O [oridonin]
Sca-1+ cells, percent of the population of blood cells [1, 7]: 0.14%
cd34+ cells, percent of the population of blood cells [1, 7]: approximately 0.18%
fold increase of percentage of Sca-1+ cells in blood over control [1, 7]: ~1.4 fold
fold increase of percentage of cd34+ cells in blood over control [1, 7]: ~1.8 fold
CD34 cells, percent of the population of bone marrow cells [2, 8]: greater than 0.5%
Sca-1+ cells, percent of the population of bone marrow cells [2, 8]: about 0.5%
fold increase of percentage of Sca-1+ cells in bone marrow over control [2, 8]: ≥ 10 fold
fold increase of percentage of cd34+ cells in bone marrow over control [2, 8]: ≥ 10 fold

COC(=O)[C@]1(C)CC[C@]2(C)CC[C@]3(C)C4=CCc5c(cc(O)c(O)c5C)[C@]4(C)CC[C@@]3(C)[C@@H]2C1 [pristimerol]
Sca-1+ cells, percent of the population of blood cells [1, 5]: about 0.25%
cd34+ cells, percent of the population of blood cells [1, 5]: about 0.4%
cd45+ cells, percent of the population of blood cells [1, 5]: about 0.06%
fold increase of percentage of Sca-1+ cells in blood over control [1, 5]: ~6 fold
fold increase of percentage of cd34+ cells in blood over control [1, 5]: ~3 fold
fold increase of percentage of cd45+ cells in blood over control [1, 5]: ~3 fold
Sca-1+ cells, percent of the population of bone marrow cells [2, 6]: about 0.28%
cd34+ cells, percent of the population of bone marrow cells [2, 6]: about 0.28%
cd45+ cells, percent of the population of bone marrow cells [2, 6]: about 0.16%
fold increase of percentage of Sca-1+ cells in bone marrow over control [2, 6]: 4-5 fold
fold increase of percentage of cd34+ cells in bone marrow over control [2, 6]: greater than 4 fold
fold increase of percentage of cd45+ cells in bone marrow over control [2, 6]: greater than 5 fold

CCCC(CCC)C(=O)O [valproic acid]
Sca-1+ cells, percent of the population of blood cells [1, 9]: less than 0.4%
cd34+ cells, percent of the population of blood cells [1, 9]: greater than 0.4%
cd45+ cells, percent of the population of blood cells [1, 9]: less than 0.2%
fold increase of percentage of cd34+ cells in blood over control [1, 9]: ~2.6 fold
CD34 cells, percent of the population of bone marrow cells [2, 10]: about 0.2%
Sca-1+ cells, percent of the population of bone marrow cells [2, 10]: about 0.18%
cd45+ cells, percent of the population of bone marrow cells [2, 10]: about 0.08%
fold increase of percentage of Sca-1+ cells in bone marrow over control [2, 10]: ~6 fold
fold increase of percentage of cd34+ cells in bone marrow over control [2, 10]: ≥ 4 fold
fold increase of percentage of cd45+ cells in bone marrow over control [2, 10]: ≥ 3 fold
toxicity in mice (mice): not toxic
fold increase of percentage of Sca-1+ cells in blood over control [3]: ~3 fold
fold increase of percentage of cd45+ cells in blood over control [3]: ~4 fold

dihydrocelastrol diacetate
Sca-1+ cells, percent of the population of blood cells [1, 5]: about 1.4%
cd34+ cells, percent of the population of blood cells [1, 5]: 1.5%
cd45+ cells, percent of the population of blood cells [1, 5]: about 0.4%
fold increase of percentage of Sca-1+ cells in blood over control [1, 5]: ~36 fold
fold increase of percentage of cd34+ cells in blood over control [1, 5]: ~10 fold
fold increase of percentage of cd45+ cells in blood over control [1, 5]: ~20 fold
Sca-1+ cells, percent of the population of bone marrow cells [2, 6]: about 0.17%
cd34+ cells, percent of the population of bone marrow cells [2, 6]: 0.15%
change of percentage of cd45+ cells in bone marrow compared to untreated control [2, 6]: decrease
fold increase of percentage of Sca-1+ cells in bone marrow over control [2, 6]: ~3 fold
fold increase of percentage of cd34+ cells in bone marrow over control [2, 6]: ~3 fold

C=CCNC1=C2C[C@@H](C)C[C@H](OC)[C@H](O)[C@@H](C)/C=C(\C)[C@H](OC(N)=O)[C@@H](OC)/C=C\C=C(/C)C(=O)NC(=CC1=O)C2=O [Formula 17-AAG, 17-allylamino-17-demethoxygeldanamycin]
level of TNF-α compared to placebo control ([4]; 17-AAG 10 mg/kg i.p., by 24 hours post treatment): declined below levels seen in the placebo control
level of MCP1 compared to placebo control ([4]; 17-AAG 10 mg/kg i.p., over the course of the experiment): not significantly different
level of IL-17 compared to placebo control ([4]; i.p. celastrol 3.0 mg/kg (throughout 72 hours) or 17-AAG 10 mg/kg (up to 48 hours)): consistently high
level of IFN-γ compared to placebo control [4, 11]: remained elevated up to 72 hours
level of IL-1β compared to placebo control [4, 11]: remained elevated up to 72 hours
level of IL-3 compared to placebo control [4, 11]: remained elevated up to 72 hours
level of IL-4 compared to placebo control [4, 11]: remained elevated up to 72 hours
level of IL-5 compared to placebo control [4, 11]: remained elevated up to 72 hours
level of IL-10 compared to placebo control [4, 11]: remained elevated up to 72 hours; also recorded: had risen again by 72 hours
level of IL-12p40 compared to placebo control [4, 11]: elevated again at 24 hours
level of IL-12p70 compared to placebo control [4, 11]: remained elevated up to 72 hours
level of IL-12p80 compared to placebo control [4, 11]: remained elevated up to 72 hours
time by which GM-CSF (elevated pre treatment) declined to placebo control levels [4, 12]: ≤ 6 h
time by which IL-1α returned to levels seen in the placebo control [4, 12]: ≤ 24 h
time by which IL-2 returned to levels seen in the placebo control [4, 12]: ≤ 6 h
time by which IL-6 returned to levels seen in the placebo control [4, 12]: ≤ 24 h
time by which IL-9 (elevated pre treatment) declined to placebo control levels [4, 12]: ≤ 6 h
time by which IL-13 returned to levels seen in the placebo control [4, 12]: ≤ 6 h
time by which KC returned to levels seen in the placebo control [4, 12]: ≤ 24 h
time by which MIP1β returned or declined to placebo control levels [4, 12]: ≤ 6 h
time by which RANTES returned to levels seen in the placebo control [4, 12]: up to 72 hours
time by which VEGF returned to levels seen in the placebo control [4, 12]: ≤ 6 h
time of peak level of IFN-γ post treatment [4, 13]: around 24 hours
time of peak level of IL-1α post treatment [4, 13]: around 6 hours
time of peak level of IL-1β post treatment [4, 13]: around 24 hours
time of peak level of IL-2 post treatment [4, 13]: around 3 hours
time of peak level of IL-3 post treatment [4, 13]: around 24 hours
time of peak level of IL-4 post treatment [4, 13]: around 24 hours
time of peak level of IL-5 post treatment [4, 13]: around 24 hours
time of peak level of IL-6 post treatment [4, 13]: around 6 hours
time of peak level of IL-10 post treatment [4, 13]: around 24 hours
time of peak level of IL-12p70 post treatment [4, 13]: around 24 hours
time of peak level of IL-12p80 post treatment [4, 13]: around 24 hours
time of peak level of IL-13 post treatment [4, 13]: around 3 hours
time of peak level of KC post treatment [4, 13]: around 6 hours
time of peak level of MCP1 post treatment [4, 13]: around 24 hours
time of peak level of MIP1β post treatment [4, 13]: around 3 hours
time of peak level of RANTES post treatment [4, 13]: around 48 hours
time of peak level of TNF-α post treatment [4, 13]: around 3 hours
time of peak level of VEGF post treatment [4, 13]: around 3 hours

CC(C)[C@]12O[C@H]1[C@@H]1O[C@]13[C@]1(O[C@H]1C[C@H]1C4=C(CC[C@@]13C)C(=O)OC4)[C@@H]2O [triptolide]
CD34-expressing cells, percent of the population of blood cells [1, 14]: ~1%
Sca-1+ cells, percent of the population of blood cells [1, 14]: ~1%
Sca-1+ cells, percent of cells in blood [1, 15]: ~2%
cd34+ cells, percent of cells in blood [1, 15]: ~2%
cd45+ cells, percent of the cells in blood [1, 15]: about 0.2%
Sca-1+ cells, percent of cells in blood [1, 16]: ~3%
cd34+ cells, percent of cells in blood [1, 16]: about 3%
cd34+ cells, percent of the population of bone marrow cells [2, 14]: ~0.8%
fold increase in the proportion of Sca-1 stem cells in bone marrow vs untreated mice [2, 14]: approximately 15 fold
fold increase of percentage of cd34+ cells in bone marrow over control [2, 14]: ~16 fold
fold increase of percentage of cd45+ cells in bone marrow vs untreated control [2, 14]: about 3 fold
sca-1+ stem cells, percent of bone marrow cell population [2, 14]: 0.75%
cd34+ cells, percent of bone marrow cells [2, 15]: 0.3%
cd45+ cells, percent in bone marrow [2, 15]: about 0.07%
fold increase of percentage of cd34+ cells in bone marrow compared to control mice [2, 15]: 6 fold
sca-1+ cells, percent of bone marrow cell population [2, 15]: 0.25%
CD34 cells, percent in bone marrow [2, 16]: 0.65%
Sca-1+ cells, percent in bone marrow [2, 16]: about 0.5%
cd45+ cells, percent in bone marrow [2, 16]: ~0.12%

From patent US20110218143A1, “COMPOSITIONS AND METHODS FOR TISSUE REPAIR” (UNIVERSITY OF FLORIDA RESEARCH FOUNDATION, priority 2007, published 2011)
